Data taken from article PMC11579541, “In vitro, in vivo, and in silico approaches for evaluating the preclinical DMPK profiles of ammoxetine, a novel chiral serotonin and norepinephrine reuptake inhibitor” (Frontiers in Pharmacology, 2024).
Where “and” joins values, the source holds several entries; their conditions need not be identical. Equal entries are not always repeated.

Assays:
CYP 2D6 [1] = target: T1, CYP 2D6 (Homo sapiens, UniProt P10635); assay: CYP inhibition, cocktail-substrate method in HLM; format: in vitro ADME; design: 0.5 mg/mL HLM, 1 mmol/L NADPH, and a cocktail of 10 probe substrates for 9 CYP isoforms; tissue BD (Woburn, USA); host or cells: pooled human liver microsomes
Method: (§1) To assess the CYP inhibition profiling of ammoxetine, a high-throughput assay based on the cocktail-substrate method was performed, as described in the literature ([Kim et al., 2005]; [Kozakai et al., 2014]). Microsomal incubations were conducted in triplicate for 30 min at 37°C in a reaction system (200 μL) consisting of […] potassium phosphate buffer (pH 7.4), 0.5 mg/mL HLM, 1 mmol/L NADPH, and a cocktail of 10 probe substrates for 9 CYP isoforms. The final concentration of each CYP-specific substrate was chosen to be close to the Michaelis-Menten constant (K m ) value of the respective substrate ([Kim et al., 2005]; [Lee et al., 2024]). For instance, phenacetin (CYP 1A2) was used at a concentration of 50 μmol/L, coumarin (CYP 2A6) at 5 μmol/L, bupropion (CYP 2B6) at 50 μmol/L, amodiaquine (CYP 2C8) at 5 μmol/L, tolbutamide (CYP 2C9) at 100 μmol/L, S-mephenytoin (CYP 2C19) at 100 μmol/L, dextromethorphan (CYP 2D6) at 5 μmol/L, chlorzoxazone (CYP 2E1) at 50 μmol/L, and testosterone and midazolam (CYP 3A4) at 50 μmol/L. Ammoxetine was evaluated at five concentrations: 0.1, 1, 10, 50, and 100 μmol/L. Additionally, a blank control without ammoxetine was included. The incubation was terminated by adding an equal volume of ice-cold acetonitrile/methanol (1:1, v/v) along with the IS, dexmedetomidine (1 ng/mL). After a 20-fold dilution, the mixture was centrifuged at 13,800×g for 10 min at 4°C. The supernatants were used to measure the levels of metabolites from the respective probe substrates using an LC-MS-MS method. The half-maximal inhibitory concentration (IC50) values were subsequently calculated.

CYP 1A2 [2] = target: T2, CYP 1A2 (Homo sapiens, UniProt P05177); assay: CYP inhibition, cocktail-substrate method in HLM; format: in vitro ADME; design: 0.5 mg/mL HLM, 1 mmol/L NADPH, and a cocktail of 10 probe substrates for 9 CYP isoforms; tissue BD (Woburn, USA); host or cells: pooled human liver microsomes
T2 sequence (P05177 1-516): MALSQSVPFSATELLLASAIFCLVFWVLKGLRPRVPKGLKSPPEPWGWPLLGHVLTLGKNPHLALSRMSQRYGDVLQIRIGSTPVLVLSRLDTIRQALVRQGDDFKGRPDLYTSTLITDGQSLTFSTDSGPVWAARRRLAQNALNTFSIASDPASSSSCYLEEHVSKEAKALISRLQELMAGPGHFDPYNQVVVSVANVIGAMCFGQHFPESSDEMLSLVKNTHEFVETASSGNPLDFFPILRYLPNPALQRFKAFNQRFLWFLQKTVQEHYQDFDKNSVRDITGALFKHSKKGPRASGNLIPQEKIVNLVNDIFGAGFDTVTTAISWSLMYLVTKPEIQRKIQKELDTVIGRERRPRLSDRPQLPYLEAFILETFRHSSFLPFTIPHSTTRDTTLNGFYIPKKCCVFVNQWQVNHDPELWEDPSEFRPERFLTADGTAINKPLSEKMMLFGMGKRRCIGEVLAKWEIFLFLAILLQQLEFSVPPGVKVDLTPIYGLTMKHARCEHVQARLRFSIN
Method: as §1

[3] = PPB assay by ultrafiltration, human plasma; format: in vitro ADME, humans
Method: The PPB of ammoxetine was determined using the ultrafiltration method. Triplicate samples of rat, dog, or human plasma were spiked with ammoxetine at three final concentrations (50, 150, and 450 ng/mL). The spiked plasma samples were then incubated in a 37°C air-bath shaker for 1 h until equilibrium was reached. After incubation, 400 μL of the plasma samples were transferred to pre-saturated ultrafiltration devices. These devices were subsequently centrifuged at 13,800×g and 20°C for 20 min to separate the unbound ammoxetine. 100 μL of the test samples were taken and mixed with 100 μL of the IS, L-phencynonate (50 ng/mL), and 300 μL of methanol. Following centrifugation at 13,800×g for 10 min, the supernatants were used to determine the total and free concentrations of ammoxetine in the plasma (C t , C f ) using an LC-MS-MS method. The PPB rate (%) of ammoxetine was calculated by dividing (C t −C f ) by C t .

CYP 2D6 [4] = target: T1, CYP 2D6; assay: Phenotyping with recombinant human CYP 2D6; format: in vitro ADME; design: purchased BD (Woburn, USA); conditions: 5 μmol/L, 25 pmol/mL CYP, 1 h
Method: (§2) Ammoxetine (final concentration 5 μmol/L) was incubated with recombinant human CYP 3A4, CYP 1A2, CYP 2C9, CYP 2C19, and CYP 2D6 (final concentration 25 pmol/mL) in a 5 mmol/L K2HPO4 buffer at pH 7.4. The incubations were performed in quintuplicate. NADPH (final concentration 1 mmol/L) was added to initiate the incubation process. The mixture was then incubated at 37°C for 1 h. To stop the reaction, 200 μL of ice-cold acetonitrile/methanol (1:1, v/v) containing 500 ng/mL of L-phencynonate (IS) was added. The samples were vortexed for 2 min and centrifuged at 13,800×g and 4°C for 10 min. The supernatants obtained were analyzed using an LC-MS-MS method. To establish appropriate controls, zero-time controls and blank controls in the absence of NADPH were set up in parallel.

CYP 1A2 [5] = target: T2, CYP 1A2; assay: Phenotyping with recombinant human CYP 1A2; format: in vitro ADME; design: purchased BD (Woburn, USA); conditions: 5 μmol/L, 25 pmol/mL CYP, 1 h
Method: as §2

CYP 2C19 = CYP 2C19 (Homo sapiens, UniProt P33261); assay: Phenotyping with recombinant human CYP 2C19; format: in vitro ADME; design: purchased BD (Woburn, USA); conditions: 5 μmol/L, 25 pmol/mL CYP, 1 h
Method: as §2

T1 sequence (P10635 whole entry, canonical isoform): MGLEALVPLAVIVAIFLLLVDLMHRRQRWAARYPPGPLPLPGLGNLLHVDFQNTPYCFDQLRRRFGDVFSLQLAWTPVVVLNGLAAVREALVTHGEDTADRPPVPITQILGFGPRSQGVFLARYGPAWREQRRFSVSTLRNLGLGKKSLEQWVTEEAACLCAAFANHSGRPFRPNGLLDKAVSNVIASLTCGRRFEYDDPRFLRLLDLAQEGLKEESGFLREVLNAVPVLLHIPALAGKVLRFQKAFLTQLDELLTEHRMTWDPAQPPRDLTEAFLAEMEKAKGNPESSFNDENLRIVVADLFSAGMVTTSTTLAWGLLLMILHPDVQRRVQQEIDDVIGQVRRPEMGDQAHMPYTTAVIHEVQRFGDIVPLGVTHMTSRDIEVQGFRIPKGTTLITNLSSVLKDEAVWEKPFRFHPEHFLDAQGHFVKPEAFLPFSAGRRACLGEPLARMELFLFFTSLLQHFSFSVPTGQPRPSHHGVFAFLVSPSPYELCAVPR
Sequence of CYP 2C19 (P33261 whole entry): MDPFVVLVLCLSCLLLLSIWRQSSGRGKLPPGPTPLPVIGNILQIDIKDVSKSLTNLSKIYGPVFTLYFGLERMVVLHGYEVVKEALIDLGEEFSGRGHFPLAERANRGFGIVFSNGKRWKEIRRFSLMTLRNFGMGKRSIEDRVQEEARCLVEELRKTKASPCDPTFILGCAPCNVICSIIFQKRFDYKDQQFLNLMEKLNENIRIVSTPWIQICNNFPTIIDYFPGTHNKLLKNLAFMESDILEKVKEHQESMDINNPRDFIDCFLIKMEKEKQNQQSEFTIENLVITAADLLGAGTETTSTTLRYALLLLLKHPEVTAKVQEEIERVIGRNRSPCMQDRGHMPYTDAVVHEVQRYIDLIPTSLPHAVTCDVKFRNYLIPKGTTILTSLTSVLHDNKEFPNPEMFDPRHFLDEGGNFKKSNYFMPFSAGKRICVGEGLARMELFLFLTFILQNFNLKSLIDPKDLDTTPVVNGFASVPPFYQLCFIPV

For `CNCC[C@H](Oc1cccc2c1OCO2)c1cccs1` [ammoxetine], which IC50 (CYP 2D6 [1]; HLM, probe dextromethorphan) is on record?
The IC50 was over 100 µM.

What about the “probe substrate levels, % of the original blank group” value (CYP 2D6 [1]; ammoxetine 100 μmol/L) of the same compound?
Its value is “approximately 65.86%”.

What about the IC50 (CYP 1A2 [2]; HLM, probe phenacetin) of the same compound?
Its IC50 is over 100 µM.

And the “probe substrate levels, % of the original blank group” value (CYP 1A2 [2]; ammoxetine 100 μmol/L)?
The value was about 72.30%.

And the fraction unbound at 1 h, 50 ng/mL ([3]; 50 ng/mL, read-out: Percentage of ammoxetine-protein binding rate (%) (converted))?
The fraction unbound at 1 h, 50 ng/mL was 0.415.

And the fraction unbound at 1 h, 150 ng/mL ([3]; 150 ng/mL, read-out: Percentage of ammoxetine-protein binding rate (%) (converted))?
The fraction unbound at 1 h, 150 ng/mL was 0.503.

What about the fraction unbound at 1 h, 450 ng/mL ([3]; 450 ng/mL, read-out: Percentage of ammoxetine-protein binding rate (%) (converted)) of the same compound?
Its fraction unbound at 1 h, 450 ng/mL is 0.45.

And the fraction unbound at 1 h ([3]; approximate range over 50-450 ng/mL, read-out: PPB rate)?
The fraction unbound at 1 h was 0.4 to 0.5.

And the Transformation ratio% (CYP 2D6 [4])?
Its Transformation ratio% is 14.09±1.89%.

What about the “residuary concentration of ammoxetine, Mean±SD” value (CYP 2D6 [4]) of the same compound?
Its value is 5.89±0.13.

What about the Transformation ratio% (CYP 1A2 [5]) of the same compound?
Its Transformation ratio% is 14.04±2.29%.

What about the “residuary concentration of ammoxetine, Mean±SD” value (CYP 1A2 [5]) of the same compound?
Its value is 5.89±0.16.

And the Transformation ratio% (CYP 2C19)?
Its Transformation ratio% is 26.27±1.85% and 26.27%.

What about the “residuary concentration of ammoxetine, Mean±SD” value (CYP 2C19) of the same compound?
The value was 5.05±0.13.
